According to PMC9981942, “Pharmacokinetics and tissue distribution of Ramulus Mori (Sangzhi) alkaloids in rats and its effects on liver enzyme activity” (Frontiers in Pharmacology, 2023):
Like-named read-outs stand apart in the source and are kept apart here.

What was measured:
[1] = test system: CYP450s in RLMs (other isoenzymes); test: Effect on activity of rat liver microsome isoenzymes other than CYP2C11; details: SZ-A 8.899 μg/mL, DNJ 20 μM, FA 5 μM, DAB 8 μM
[2] = Pharmacokinetic study: plasma levels after oral SZ-A in SD rats (LC-MS/MS, DAS 3.2.8); type: in vivo; details: for Tmax / AUC(0-inf) / AUC(0-t) / Cmax / half-life / MRT last / MRT inf: both sexes, rat; for Tmax: SD, po; for Tmax / AUC(0-inf) / AUC(0-t) / Cmax / half-life / MRT last / MRT inf / CLz / VRT(0-t) / VRT(0-∞) / Vz: plasma; for AUC(0-inf) / AUC(0-t) / Cmax / half-life / CLz / VRT(0-t) / VRT(0-∞) / Vz: n=8; for MRT last: n=8, read-out: MRT(0-t); for MRT inf: n=8, read-out: MRT(0-∞)
Procedure: Twenty-four SD rats were fasted for 12 h (free access to water) and randomly classified into three groups (n = 8; half male and female) that received different doses of SZ-A solution (25, 50, and 200 mg/kg) via oral administration. After completion of dose administration, blood samples (0.3 mL) were collected through an indwelling catheter from the jugular vein at predetermined time points (5, 15, 30, and 45 min, 1, 2, 4, 8, and 24 h). The blood was centrifuged at 5,000 rpm for 10 min to separate the plasma. All plasma samples were stored frozen at −80°C until liquid chromatography coupled to tandem mass spectrometry (LC-MS/MS) analysis (AB SCIEX Triple Quad™ 4,500 mass spectrometer, Applied Biosystems Inc., United States).
Primary pharmacokinetic parameters, including Cmax, Tmax, area under the plasma concentration-time curve (AUC), t1/2, clearance rate, and the apparent volume of distribution, were calculated using DAS 3.2.8 (Bio Guider Co., Shanghai, China).

[3] = set-up: method as in Nakagawa et al., 2007; details: rats, after oral gavage of DNJ; ref Nakagawa et al., 2007; cited from earlier work
[4] = set-up: method as in Mackay et al., 2003; details: rats; ref Mackay et al., 2003; cited from earlier work
[5] = 25 mg/kg, oral SZ-A 25 mg/kg, n=8, read-out: Tmax
[6] = 50 mg/kg, oral SZ-A 50 mg/kg, n=8, read-out: Tmax
[7] = 200 mg/kg, oral SZ-A 200 mg/kg, n=8, read-out: Tmax
[8] = 200 mg/kg, oral SZ-A 25, 50 and 200 mg/kg, read-out: time to maximum plasma concentration (Tmax), all dose groups

Row | effect on other isoenzymes in RLMs [1] | Tmax [2, 5] | Tmax [2, 6] | Tmax [2, 7] | Tmax [2, 8] | AUC(0-inf) ([2]; oral SZ-A 25 mg/kg) | AUC(0-t) ([2]; oral SZ-A 25 mg/kg) | Cmax ([2]; oral SZ-A 25 mg/kg) | half-life ([2]; oral SZ-A 25 mg/kg) | MRT last ([2]; oral SZ-A 25 mg/kg) | MRT inf ([2]; oral SZ-A 25 mg/kg) | AUC(0-inf) ([2]; oral SZ-A 50 mg/kg) | AUC(0-t) ([2]; oral SZ-A 50 mg/kg) | Cmax ([2]; oral SZ-A 50 mg/kg) | half-life ([2]; oral SZ-A 50 mg/kg) | MRT last ([2]; oral SZ-A 50 mg/kg) | MRT inf ([2]; oral SZ-A 50 mg/kg) | AUC(0-inf) ([2]; oral SZ-A 200 mg/kg) | AUC(0-t) ([2]; oral SZ-A 200 mg/kg) | Cmax ([2]; oral SZ-A 200 mg/kg) | SMILES | other results
1 | no obvious effect | 0.5 ± 0.3 h | 0.56 ± 0.37 h | 0.88 ± 0.27 h | ≤ 0.88 h | 1040 ± 356 ng·h/mL | 1040 ± 356 ng·h/mL | 616 ± 168 ng/mL | 1.16 ± 0.31 h | 1.55 ± 0.23 h | 1.55 ± 0.23 h | 2370 ± 634 ng·h/mL | 2370 ± 634 ng·h/mL | 1250 ± 506 ng/mL | 1.19 ± 0.03 h | 1.67 ± 0.61 h | 1.67 ± 0.61 h | 6010 ± 1650 ng·h/mL | 6010 ± 1650 ng·h/mL | 2580 ± 1250 ng/mL | OC[C@H]1NCC[C@@H](O)[C@@H]1O [FA, fagomine] | half-life ([2]; oral SZ-A 200 mg/kg): 1.08 ± 0.04 h; MRT last ([2]; oral SZ-A 200 mg/kg): 1.97 ± 0.22 h; MRT inf ([2]; oral SZ-A 200 mg/kg): 1.97 ± 0.22 h; CLz ([2]; oral SZ-A 25 mg/kg): 78.5 ± 24.3 mL/min/kg; VRT(0-t) ([2]; oral SZ-A 25 mg/kg): 1.46±0.55 h^2; VRT(0-∞) ([2]; oral SZ-A 25 mg/kg): 1.46±0.55 h^2; Vz ([2]; oral SZ-A 25 mg/kg): 7.62 ± 2.89 L/kg; CLz ([2]; oral SZ-A 50 mg/kg): 66.7 ± 17.3 mL/min/kg; VRT(0-t) ([2]; oral SZ-A 50 mg/kg): 1.90±2.02 h^2; VRT(0-∞) ([2]; oral SZ-A 50 mg/kg): 1.91±2.02 h^2; Vz ([2]; oral SZ-A 50 mg/kg): 6.88 ± 1.85 L/kg; CLz ([2]; oral SZ-A 200 mg/kg): 105 ± 26.7 mL/min/kg; VRT(0-t) ([2]; oral SZ-A 200 mg/kg): 3.08±0.76 h^2; VRT(0-∞) ([2]; oral SZ-A 200 mg/kg): 3.08±0.76 h^2; Vz ([2]; oral SZ-A 200 mg/kg): 9.94 ± 2.86 L/kg
2 | no obvious effect | 0.41 ± 0.23 h | 0.63 ± 0.33 h | 0.78 ± 0.25 h | ≤ 0.88 h | 7160 ± 1650 ng·h/mL | 7160 ± 1650 ng·h/mL | 4950 ± 978 ng/mL | 1.02 ± 0.27 h | 1.27 ± 0.2 h | 1.27 ± 0.2 h | 12600 ± 3470 ng·h/mL | 12600 ± 3470 ng·h/mL | 7080 ± 1640 ng/mL | 1.07 ± 0.04 h | 1.51 ± 0.42 h | 1.51 ± 0.42 h | 38500 ± 18000 ng·h/mL | 38300 ± 18000 ng·h/mL | 19400 ± 10800 ng/mL | OC[C@H]1NC[C@H](O)[C@@H](O)[C@@H]1O [DNJ, 1-deoxynojirimycin] | DNJ metabolites in plasma [3]: did not detect any DNJ metabolites; half-life ([2]; oral SZ-A 200 mg/kg): 3.25 ± 4.2 h; MRT last ([2]; oral SZ-A 200 mg/kg): 1.79 ± 0.3 h; MRT inf ([2]; oral SZ-A 200 mg/kg): 2.02 ± 0.59 h; differences in t1/2 and CLz between the three doses ([2]; oral SZ-A 25, 50, 200 mg/kg): no significant differences; CLz ([2]; oral SZ-A 25 mg/kg): 41.7 ± 11.2 mL/min/kg; VRT(0-t) ([2]; oral SZ-A 25 mg/kg): 1.15±0.57 h^2; VRT(0-∞) ([2]; oral SZ-A 25 mg/kg): 1.15±0.57 h^2; Vz ([2]; oral SZ-A 25 mg/kg): 3.65 ± 1.45 L/kg; CLz ([2]; oral SZ-A 50 mg/kg): 48 ± 12.7 mL/min/kg; VRT(0-t) ([2]; oral SZ-A 50 mg/kg): 2.02±1.71 h^2; VRT(0-∞) ([2]; oral SZ-A 50 mg/kg): 2.02±1.71 h^2; Vz ([2]; oral SZ-A 50 mg/kg): 4.47 ± 1.30 L/kg; CLz ([2]; oral SZ-A 200 mg/kg): 74.5 ± 44.2 mL/min/kg; VRT(0-t) ([2]; oral SZ-A 200 mg/kg): 6.42±4.65 h^2; VRT(0-∞) ([2]; oral SZ-A 200 mg/kg): 16.10±21.66 h^2; Vz ([2]; oral SZ-A 200 mg/kg): 17.77 ± 20.83 L/kg
3 | no obvious effect | 0.31 ± 0.12 h | 0.44 ± 0.35 h | 0.75 ± 0.3 h | ≤ 0.88 h | 1360 ± 299 ng·h/mL | 1360 ± 299 ng·h/mL | 1050 ± 141 ng/mL | 1.16 ± 0.31 h | 1.26 ± 0.17 h | 1.26 ± 0.17 h | 2660 ± 367 ng·h/mL | 2660 ± 367 ng·h/mL | 1770 ± 632 ng/mL | 1.2 ± 0.03 h | 1.45 ± 0.56 h | 1.45 ± 0.56 h | 7630 ± 2040 ng·h/mL | 7630 ± 2040 ng·h/mL | 3640 ± 1370 ng/mL | OC[C@H]1NC[C@@H](O)[C@@H]1O [DAB, 1,4-dideoxy-1,4-imino-D-arabinitol] | half-life ([2]; oral SZ-A 200 mg/kg): 1.08 ± 0.04 h; MRT last ([2]; oral SZ-A 200 mg/kg): 1.6 ± 0.26 h; MRT inf ([2]; oral SZ-A 200 mg/kg): 1.6 ± 0.26 h; CLz ([2]; oral SZ-A 25 mg/kg): 45.3 ± 11 mL/min/kg; VRT(0-t) ([2]; oral SZ-A 25 mg/kg): 1.25±0.51 h^2; VRT(0-∞) ([2]; oral SZ-A 25 mg/kg): 1.25±0.51 h^2; Vz ([2]; oral SZ-A 25 mg/kg): 4.47 ± 1.53 L/kg; CLz ([2]; oral SZ-A 50 mg/kg): 45.2 ± 6.17 mL/min/kg; VRT(0-t) ([2]; oral SZ-A 50 mg/kg): 1.83±2.07 h^2; VRT(0-∞) ([2]; oral SZ-A 50 mg/kg): 1.83±2.07 h^2; Vz ([2]; oral SZ-A 50 mg/kg): 4.70 ± 0.65 L/kg; CLz ([2]; oral SZ-A 200 mg/kg): 65.7 ± 16.7 mL/min/kg; VRT(0-t) ([2]; oral SZ-A 200 mg/kg): 1.92±0.81 h^2; VRT(0-∞) ([2]; oral SZ-A 200 mg/kg): 1.92±0.81 h^2; Vz ([2]; oral SZ-A 200 mg/kg): 6.20 ± 1.82 L/kg; form excreted [4]: mainly excreted unchanged
